Measurements from patent publication US10670605B2, “Cysteine reactive probes and uses thereof” (The Scripps Research Institute, priority 2015, dated 2020).
Where “and” joins values, the source holds several entries; their conditions need not be identical. Equal entries are not always repeated. One block for each compound: values may come before it.

Columns and labels:
Assay in all cases: Competitive isoTOP-ABPP, cell lysates
Assay type in all cases: binding
IDH2 C308 (P48735) = target: T1, IDH2 C308 (P48735) (Homo sapiens, UniProt P48735); conditions: for isoTOP-ABPP ratio, P48735_C308: 500 μM, invitro, 231; for isoTOP-ABPP reactivity ratio, P48735_C308: 500 μm
T1 sequence (P48735 40-452): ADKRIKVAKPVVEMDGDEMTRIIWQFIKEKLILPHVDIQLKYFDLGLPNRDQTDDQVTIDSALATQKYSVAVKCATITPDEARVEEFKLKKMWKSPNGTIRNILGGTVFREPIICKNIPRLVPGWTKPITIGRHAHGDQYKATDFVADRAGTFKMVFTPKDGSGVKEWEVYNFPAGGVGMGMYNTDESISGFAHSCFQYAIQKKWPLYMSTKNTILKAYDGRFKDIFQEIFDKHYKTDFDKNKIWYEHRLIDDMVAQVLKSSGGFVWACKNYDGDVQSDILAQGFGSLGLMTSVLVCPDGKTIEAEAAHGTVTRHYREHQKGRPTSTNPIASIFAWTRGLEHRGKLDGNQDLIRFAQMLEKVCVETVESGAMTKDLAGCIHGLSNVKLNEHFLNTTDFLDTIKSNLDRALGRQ

MGMT C150 (P16455) = target: T2, MGMT C150 (P16455) (Homo sapiens, UniProt P16455); conditions: for isoTOP-ABPP ratio, P16455_C150: 500 μM, invitro, ramos; for isoTOP-ABPP reactivity ratio, P16455_C150: 500 μm, in-vitro_ramos
T2 sequence (P16455 1-207): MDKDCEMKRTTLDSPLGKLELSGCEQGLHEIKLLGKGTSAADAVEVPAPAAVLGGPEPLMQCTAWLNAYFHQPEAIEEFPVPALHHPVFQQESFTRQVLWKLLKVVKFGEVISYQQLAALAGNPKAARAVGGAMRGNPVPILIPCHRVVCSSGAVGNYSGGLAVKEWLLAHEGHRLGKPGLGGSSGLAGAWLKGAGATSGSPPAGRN

GNB2L1 C182 (P63244) = GNB2L1 C182 (P63244) (Homo sapiens, UniProt P63244); conditions: for isoTOP-ABPP ratio, P63244_C182: 500 μM, invitro; for isoTOP-ABPP reactivity ratio, P63244_C182: 500 μm
PDE12 C108 (Q6L8Q7) = target: T3, PDE12 C108 (Q6L8Q7) (Homo sapiens, UniProt Q6L8Q7); conditions: for isoTOP-ABPP ratio, Q6L8Q7_C108: 500 μM, invitro, ramos; for isoTOP-ABPP reactivity ratio, Q6L8Q7_C108: 500 μm
T3 sequence (Q6L8Q7 43-609): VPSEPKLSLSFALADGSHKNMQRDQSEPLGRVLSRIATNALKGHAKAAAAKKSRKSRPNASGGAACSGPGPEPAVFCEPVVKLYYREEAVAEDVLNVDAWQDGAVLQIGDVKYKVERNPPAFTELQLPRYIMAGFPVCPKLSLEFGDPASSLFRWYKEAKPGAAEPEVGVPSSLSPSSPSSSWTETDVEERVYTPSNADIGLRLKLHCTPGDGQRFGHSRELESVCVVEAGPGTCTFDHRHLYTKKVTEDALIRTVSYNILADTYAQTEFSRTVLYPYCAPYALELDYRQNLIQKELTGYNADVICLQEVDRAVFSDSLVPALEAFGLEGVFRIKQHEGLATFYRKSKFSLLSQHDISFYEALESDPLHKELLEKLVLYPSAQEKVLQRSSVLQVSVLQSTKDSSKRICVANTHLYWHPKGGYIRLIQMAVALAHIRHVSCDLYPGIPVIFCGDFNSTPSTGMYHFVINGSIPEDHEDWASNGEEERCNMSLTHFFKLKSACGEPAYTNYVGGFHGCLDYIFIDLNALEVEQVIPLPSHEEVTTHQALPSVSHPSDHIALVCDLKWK

USP22 C171 (Q9UPT9) = target: T4, USP22 C171 (Q9UPT9) (Homo sapiens, UniProt Q9UPT9); conditions: for isoTOP-ABPP ratio, Q9UPT9_C171: 500 μM, invitro, ramos; for isoTOP-ABPP ratio (reactivity profile), Q9UPT9_C171: 500 μm in-vitro ramos; for isoTOP-ABPP reactivity ratio, Q9UPT9_C171: 500 μm
T4 sequence (Q9UPT9 1-525): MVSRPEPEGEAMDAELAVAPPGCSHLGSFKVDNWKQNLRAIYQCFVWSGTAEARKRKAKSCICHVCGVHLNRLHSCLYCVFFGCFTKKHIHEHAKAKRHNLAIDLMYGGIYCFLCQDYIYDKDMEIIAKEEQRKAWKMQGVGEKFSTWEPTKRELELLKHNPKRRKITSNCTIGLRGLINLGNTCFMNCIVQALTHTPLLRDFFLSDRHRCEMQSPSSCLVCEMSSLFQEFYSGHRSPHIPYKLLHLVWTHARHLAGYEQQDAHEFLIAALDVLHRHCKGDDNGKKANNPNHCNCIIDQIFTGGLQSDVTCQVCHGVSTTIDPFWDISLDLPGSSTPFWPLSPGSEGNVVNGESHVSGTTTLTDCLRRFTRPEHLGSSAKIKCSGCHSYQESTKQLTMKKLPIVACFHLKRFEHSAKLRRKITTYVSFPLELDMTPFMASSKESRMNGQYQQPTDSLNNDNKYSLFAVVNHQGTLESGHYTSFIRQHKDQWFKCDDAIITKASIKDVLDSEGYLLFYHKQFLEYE

isoTOP-ABPP ratio, P48735_C308 (IDH2 C308 (P48735)): 1.1 | isoTOP-ABPP ratio, P16455_C150 (MGMT C150 (P16455)): 4.2 | isoTOP-ABPP ratio, P63244_C182 (GNB2L1 C182 (P63244); 231): 1.4 | isoTOP-ABPP ratio, P63244_C182 (GNB2L1 C182 (P63244); ramos): 0.8 | isoTOP-ABPP ratio, Q6L8Q7_C108 (PDE12 C108 (Q6L8Q7)): 1.0 | isoTOP-ABPP ratio, Q9UPT9_C171 (USP22 C171 (Q9UPT9)): 0.8
SMILES: O=C(CCl)NCCc1c[nH]c2ccccc12 [compound 13]

isoTOP-ABPP ratio (reactivity profile), P48735_C308 (IDH2 C308 (P48735); 500 μm in-vitro ramos_231): 1.9 and 1.0 | isoTOP-ABPP ratio (reactivity profile), P16455_C150 (MGMT C150 (P16455); 500 μm in-vitro ramos): 2.3 | isoTOP-ABPP ratio (reactivity profile), P16455_C150 (MGMT C150 (P16455); 500 μm in-vitro ramos_231): 1.0 | isoTOP-ABPP ratio (reactivity profile), P63244_C182 (GNB2L1 C182 (P63244); 500 μm in-vitro ramos): 1.1 | isoTOP-ABPP ratio (reactivity profile), P63244_C182 (GNB2L1 C182 (P63244); 500 μm in-vitro ramos_231): 1.0 and 0.8 | isoTOP-ABPP ratio (reactivity profile), Q6L8Q7_C108 (PDE12 C108 (Q6L8Q7); 500 μm in-vitro ramos): 1.3 | isoTOP-ABPP ratio (reactivity profile), Q6L8Q7_C108 (PDE12 C108 (Q6L8Q7); 500 μm in-vitro ramos_231): 0.5 | isoTOP-ABPP ratio (reactivity profile), Q9UPT9_C171 (USP22 C171 (Q9UPT9)): 1.2
SMILES: CC(C)CCOCCNC(=O)CCl [compound 27]

isoTOP-ABPP ratio (reactivity profile), P48735_C308 (IDH2 C308 (P48735); 500 μm in-vitro ramos_231): 0.9 | isoTOP-ABPP ratio (reactivity profile), P16455_C150 (MGMT C150 (P16455); 500 μm in-vitro ramos): 1.7 | isoTOP-ABPP ratio (reactivity profile), P63244_C182 (GNB2L1 C182 (P63244); 500 μm in-vitro ramos): 1.1 | isoTOP-ABPP ratio (reactivity profile), P63244_C182 (GNB2L1 C182 (P63244); 500 μm in-vitro ramos_231): 1.0 | isoTOP-ABPP ratio (reactivity profile), Q6L8Q7_C108 (PDE12 C108 (Q6L8Q7); 500 μm in-vitro ramos): 1.2 | isoTOP-ABPP ratio (reactivity profile), Q6L8Q7_C108 (PDE12 C108 (Q6L8Q7); 500 μm in-vitro ramos_231): 1.0 | isoTOP-ABPP ratio (reactivity profile), Q9UPT9_C171 (USP22 C171 (Q9UPT9)): 1.3
SMILES: COc1ccccc1OCCNC(=O)CCl [compound 28]

isoTOP-ABPP ratio (reactivity profile), P48735_C308 (IDH2 C308 (P48735); 500 μm in-vitro ramos): 0.7 | isoTOP-ABPP reactivity ratio, P16455_C150 (MGMT C150 (P16455)): 5.1 | isoTOP-ABPP ratio (reactivity profile), P63244_C182 (GNB2L1 C182 (P63244); 500 μm in-vitro ramos): 1.2 | isoTOP-ABPP reactivity ratio, P63244_C182 (GNB2L1 C182 (P63244); in-vitro_ramos): 1.6 | isoTOP-ABPP ratio (reactivity profile), Q6L8Q7_C108 (PDE12 C108 (Q6L8Q7); 500 μm in-vitro ramos): 1.1 | isoTOP-ABPP reactivity ratio, Q6L8Q7_C108 (PDE12 C108 (Q6L8Q7); in-vitro_ramos): 1.6 | isoTOP-ABPP reactivity ratio, Q9UPT9_C171 (USP22 C171 (Q9UPT9); in-vitro_ramos): 2.3
SMILES: CCN(CC)c1ccc(S(N)(=O)=O)cc1NC(=O)CCl [compound 30]

The remaining lines, values behind:

SMILES: O=C(CCl)NC(=O)NC12CC3CC(CC(C3)C1)C2 [compound 12]
isoTOP-ABPP ratio, P48735_C308 (IDH2 C308 (P48735)): 1.7 | isoTOP-ABPP ratio, P16455_C150 (MGMT C150 (P16455)): 20.0 | isoTOP-ABPP ratio, P63244_C182 (GNB2L1 C182 (P63244); 231): 0.9 | isoTOP-ABPP ratio, P63244_C182 (GNB2L1 C182 (P63244); ramos): 0.8 | isoTOP-ABPP ratio, Q6L8Q7_C108 (PDE12 C108 (Q6L8Q7)): 1.5 | isoTOP-ABPP ratio, Q9UPT9_C171 (USP22 C171 (Q9UPT9)): 4.1

SMILES: O=C(CCl)N1CCC(C(O)(c2ccccc2)c2ccccc2)CC1 [compound 20]
isoTOP-ABPP ratio (reactivity profile), P48735_C308 (IDH2 C308 (P48735); 500 μm in-vitro ramos_231): 0.5 | isoTOP-ABPP ratio (reactivity profile), P16455_C150 (MGMT C150 (P16455); 500 μm in-vitro ramos): 18.3 | isoTOP-ABPP ratio (reactivity profile), P63244_C182 (GNB2L1 C182 (P63244); 500 μm in-vitro ramos): 1.1 | isoTOP-ABPP ratio (reactivity profile), P63244_C182 (GNB2L1 C182 (P63244); 500 μm in-vitro ramos_231): 1.4 | isoTOP-ABPP ratio (reactivity profile), Q6L8Q7_C108 (PDE12 C108 (Q6L8Q7); 500 μm in-vitro ramos_231): 1.6 | isoTOP-ABPP ratio (reactivity profile), Q9UPT9_C171 (USP22 C171 (Q9UPT9)): 20.0

SMILES: C=CC(=O)N(Cc1cccnc1)c1cc(C(F)(F)F)cc(C(F)(F)F)c1 [compound 31]
isoTOP-ABPP reactivity ratio, P48735_C308 (IDH2 C308 (P48735); in-vitro_ramos): 1.1 | isoTOP-ABPP reactivity ratio, P48735_C308 (IDH2 C308 (P48735); in-vitro_ramos_231): 1.3 | isoTOP-ABPP reactivity ratio, P16455_C150 (MGMT C150 (P16455)): 2.8 | isoTOP-ABPP reactivity ratio, P63244_C182 (GNB2L1 C182 (P63244); in-vitro_ramos_231): 1.3 | isoTOP-ABPP reactivity ratio, Q6L8Q7_C108 (PDE12 C108 (Q6L8Q7); in-vitro_ramos_231): 2.0 | isoTOP-ABPP reactivity ratio, Q9UPT9_C171 (USP22 C171 (Q9UPT9); in-vitro_ramos_231): 2.1

SMILES: C=CC(=O)Nc1cc(F)c(N2CCN(C(=O)OC(C)(C)C)CC2)c(F)c1 [compound 38]
isoTOP-ABPP reactivity ratio, P48735_C308 (IDH2 C308 (P48735); in-vitro_ramos_231): 1.2 | isoTOP-ABPP reactivity ratio, P16455_C150 (MGMT C150 (P16455)): 1.8 | isoTOP-ABPP reactivity ratio, P63244_C182 (GNB2L1 C182 (P63244); in-vitro_ramos_231): 1.1 | isoTOP-ABPP reactivity ratio, Q6L8Q7_C108 (PDE12 C108 (Q6L8Q7); in-vitro_ramos): 6.8 | isoTOP-ABPP reactivity ratio, Q6L8Q7_C108 (PDE12 C108 (Q6L8Q7); in-vitro_ramos_231): 0.9 | isoTOP-ABPP reactivity ratio, Q9UPT9_C171 (USP22 C171 (Q9UPT9); in-vitro_ramos_231): 1.4
